We go through 7 compounds from PMC3830801, “Synthesis and Biological Evaluation of 2-Hydroxy-3-[(2-aryloxyethyl)amino]propyl 4-[(Alkoxycarbonyl)amino]benzoates” (The Scientific World Journal, 2013).

By MIC is commonly meant the lowest concentration that inhibits growth of the organism. A high value points to a need for much substance. One may read the pKa as the pH at which an ionisable group is half protonated.

The nature of data set [1]: Lipophilicity determination by HPLC (capacity factor k / log k). It is filed as physicochemical. The settings on record: RP-HPLC, C18, MeOH 55%/H2O 45%. The source says: A Waters Alliance 2695 XE HPLC separation module and a Waters Photodiode Array Detector 2996 (Waters Corp., Milford, MA, USA) were used. A Symmetry C18 5 μm, 4.6 × 250 mm, part number WAT054275 (Waters Corp., Milford, MA, USA) chromatographic column was used. The HPLC separation process was monitored by Empower 2 Chromatography Data Software, Waters 2009 (Waters Corp., Milford, MA, USA). A mixture of MeOH p.a. (55%) and H2O-HPLC–Milli-Q Grade (45%) was used as a mobile phase. The total flow of the column was 1.0 mL/min, injection volume 30 μL, column temperature 45°C, and sample temperature 10°C. The detection wavelength of 210 nm was chosen. The KI methanolic solution was used for the dead time (t D) determination. Retention times (t R) were measured in minutes. The capacity factors k were calculated using the Empower 2 Chromatography Data Software according to formula k = (t R − t D)/t D, where t R is the retention time of the solute, whereas t D denotes the dead time obtained using an unretained analyte. logk, calculated from the capacity factor k, is used as the lipophilicity index converted to logP scale.

A further data set concerns spinach chloroplasts. The data set is described as follows: Photosynthetic electron transport (PET) in spinach chloroplasts (DCPIP photoreduction). It is filed as biochemical, Spinacia oleracea L. The settings on record: DMSO 8% v/v. The method, then:
Chloroplasts were prepared from spinach (Spinacia oleracea L.) according to Masarovičová and Král'ová [38]. The inhibition of photosynthetic electron transport (PET) in spinach chloroplasts was determined spectrophotometrically (Genesys 6, Thermo Scientific, USA), using an artificial electron acceptor 2,6-dichlorophenol-indophenol (DCIPP) according to Král'ová et al., and the rate of photosynthetic electron transport was monitored as a photoreduction of DCPIP. The measurements were carried out in phosphate buffer (0.02 mol/L, pH 7.2) containing sucrose (0.4 mol/L), MgCl2 (0.005 mol/L), and NaCl (0.015 mol/L). The chlorophyll content was 30 mg/L in these experiments, and the samples were irradiated (~100 W/m^2 with 10 cm distance) with a halogen lamp (250 W) using a 4 cm water filter to prevent warming of the samples (suspension temperature 22°C). The studied compounds were dissolved in DMSO due to their limited water solubility, and the concentration of DMSO was constant (8% (v/v)) in control as well as in amphiphile-treated samples.

The test system of data set [2] is Mycobacterium intracellulare. Nature of the data set: In vitro antimycobacterial evaluation (alamarBlue, MIC). It is filed as cell-based. The settings on record: Mycobacterium intracellulare, 168 h; MIC/IC90, 7 days incubation, 37°C. The method, then: (§1) Clinical isolates of Mycobacterium avium subsp. paratuberculosis CIT03 and M. intracellulare were grown in Middlebrook broth (MB), supplemented with oleic-albumin-dextrose-catalase supplement (OADC, Becton Dickinson, UK) and mycobactin J (2 μg/mL). Identification of these isolates was performed using biochemical and molecular protocols. At log phase growth, the culture (10 mL) was centrifuged at 15,000 rpm/20 min using a bench top centrifuge (Model CR 4–12, Jouan Inc., UK). Following the removal of the supernatant, the pellet was washed in fresh Middlebrook 7H9GC broth and resuspended in fresh supplemented MB (10 mL). The turbidity was adjusted to match McFarland standard no. 1 (3 × 10^8 cfu) with MB broth. A further 1 : 20 dilution of the culture was then performed in MB broth. The antimicrobial susceptibility of all four mycobacterial species was investigated in a 96-well plate format. In these experiments, sterile deionised water (300 μL) was added to all outer-perimeter wells of the plates to minimize evaporation of the medium in the test wells during incubation. Each evaluated compound (100 μL) was incubated with each of the mycobacterial species (100 μL). Dilutions of each compound were prepared in duplicate. For all synthesized compounds, final concentrations ranged from 1,000 μg/mL to 8 μg/mL. All compounds were prepared in DMSO, and subsequent dilutions were made in supplemented MB. The plates were sealed with parafilm and incubated at 37°C, for 7 days in the case of M. intracellulare and 11 days in the case of M. avium paratuberculosis. Following incubation, a 10% addition of alamarBlue (AbD Serotec) was mixed with each well, and readings at 570 nm and 600 nm were taken, initially for background subtraction and subsequently after 24 h reincubation. […] For noninterfering compounds, a blue colour in the well was interpreted as an absence of growth, and a pink colour was scored as growth. The MIC was initially defined as the lowest concentration which prevented a visual colour change from blue to pink. […] The MIC/IC90 value is routinely and widely used in bacterial assays and is a standard detection limit according to the Clinical and Laboratory Standards Institute (CLSI, http://www.clsi.org/).
(In general: Resazurin is reduced to fluorescent resorufin, in cell work by metabolically active cells.)

For data set [3], the system named is Mycobacterium avium subsp. paratuberculosis CIT03. Described as above. As to conditions: Mycobacterium avium, 264 h; MIC/IC90, 11 days incubation, 37°C. It is filed as cell-based. How it is done: as §1
Data set [4] can be described thus: pKa determination by RP-HPLC. The settings on record: from retention factor vs pH of mobile phase, recalculated for water medium. It is filed as physicochemical.
The subject of data set [5] is human monocytic leukaemia THP-1 cell line. Nature of the data set: In vitro cytotoxicity assay (WST-1). It is filed as cell-based. The settings on record: 24 h; for increase in LD50 relative to cytotoxicity: human, 30 μmol/L. The method, then: The human monocytic leukaemia THP-1 cell line was purchased from the European Collection of Cell Cultures (ECACC, Salisbury, UK). […] Cells were passaged at approximately one-week intervals. […] The maximum concentration of DMSO in the assays never exceeded 0.1%. Cytotoxicity of the compounds was determined using a WST-1 assay kit (Roche Diagnostics, Mannheim, Germany), as described previously. The median lethal dose values, LD50, were deduced through the production of a dose-response curve. All data from three independent experiments were evaluated using GraphPad Prism 5.00 software (GraphPad Software, San Diego, CA, USA, http://www.graphpad.com).
Background: Formazan colour is commonly taken as a measure of viable cells.

`CCCCOC(=O)Nc1ccc(C(=O)OCC(O)CNCCOc2ccccc2OC)cc1.Cl` (stereo not drawn) [Compound 19d, 2-Hydroxy-3-[2-(2-methoxyphenoxy)ethylamino]-propyl 4-(Butoxycarbonylamino)benzoate Hydrochloride] returned a Log k in data set [1] of 0.4228. For the same compound, in the data set on spinach chloroplasts, the “effect on the rate of PET (in words)” value is reported as “significantly stimulated the rate of PET”. Also, the results for the MIC in data set [2] and in data set [3] were 201 µM and 62 µM, respectively. Besides, in data set [4], the pKa is 8.73.

The compound `CCCOC(=O)Nc1ccc(C(=O)OCC(O)CNCCOc2ccc(OC)cc2)cc1.Cl` (stereo not drawn) [Compound 20c, 2-Hydroxy-3-[2-(4-methoxyphenoxy)ethylamino]-propyl 4-(Propoxycarbonylamino)benzoate Hydrochloride] had a Log k in data set [1] of 0.4108. Moreover, the “effect on the rate of PET (in words)” value in the data set with spinach chloroplasts is “relatively strong PET stimulation”. Moreover, the minimal inhibitory concentration (MIC) in data set [2] and in data set [3] was 259 µM throughout. Besides, the pKa in data set [4] is 7.99.

Take `CCCCOC(=O)Nc1ccc(C(=O)OCC(O)CNCCOc2ccc(OC)cc2)cc1.Cl` (stereo not drawn) [Compound 20d, 2-Hydroxy-3-[2-(4-methoxyphenoxy)ethylamino]-propyl 4-(Butoxycarbonylamino)benzoate Hydrochloride]: the Log k in data set [1] turned out to be 0.4241. Also, the “effect on the rate of PET (in words)” value with spinach chloroplasts is on record as “significantly stimulated the rate of PET”. Besides, the minimal inhibitory concentration (MIC) was found to be 121 µM in data set [2] and 62 µM in data set [3]. Moreover, the pKa in data set [4] was 8.18.

Take `CCCCOC(=O)Nc1ccc(C(=O)OCC(O)CNCCOc2c(OC)cccc2OC)cc1.Cl` (stereo not drawn) [Compound 21d, 2-Hydroxy-3-[2-(2,6-dimethoxyphenoxy)ethylamino]-propyl 4-(Butoxycarbonylamino)benzoate Hydrochloride]: the “increase in LD50 relative to cytotoxicity” value in data set [5] is given as 61%. Further, in data set [1], the Log k is 0.4177. Moreover, the “effect on the rate of PET (in words)” value in the data set on spinach chloroplasts is recorded as “significantly stimulated the rate of PET”. In addition, the figures for the minimum inhibitory concentration (MIC) in data set [2] and in data set [3] were 114 µM and 59 µM, respectively. Also, the pKa in data set [4] was 8.58.

In the case of `CCCCOC(=O)Nc1ccc(C(=O)OCC(O)CNCCOc2ccccc2F)cc1.Cl` (stereo not drawn) [Compound 22d, 3-[2-(2-Fluorophenoxy)ethylamino]-2-hydroxypropyl 4-(Butoxycarbonylamino)benzoate Hydrochloride], the Log k in data set [1] is on record as 0.4341. Moreover, in the data set on spinach chloroplasts, the “effect on the rate of PET (in words)” value is recorded as “significantly stimulated the rate of PET”. The MIC in data set [2] and in data set [3] was 124 µM in each case. Also, in data set [4], the pKa was 7.96.

As to `CCCCOC(=O)Nc1ccc(C(=O)OCC(O)CNCCOc2ccc(F)cc2)cc1.Cl` (stereo not drawn) [Compound 23d, 3-[2-(4-Fluorophenoxy)ethylamino]-2-hydroxypropyl 4-(Butoxycarbonylamino)benzoate Hydrochloride], in data set [5], the “increase in LD50 relative to cytotoxicity” value is on record as 96%. In data set [1], this compound had a Log k of 0.4365. In addition, in the data set on spinach chloroplasts, the “effect on the rate of PET (in words)” value is given as “significantly stimulated the rate of PET”. Besides, the MIC was 258 µM in data set [2] and 64 µM in data set [3]. Besides, the pKa in data set [4] was 8.08.

`CC[C@@]1(O)C(=O)OCc2c1cc1n(c2=O)Cc2cc3ccccc3nc2-1` [camptothecin, reference compound] gave an LD50 in data set [5] (THP-1 cells, highest dose 30 μmol/L) of 0.16 ± 0.07 µmol/L.
